Patent US8178506B2, “Oligomeric compounds and compositions for use in modulation of small non-coding RNAs” (Regulus Therapeutics Inc., priority 2003, dated 2012)
In the oligonucleotide strings, read from the 5' end, every base follows the letter of its sugar. An asterisk marks phosphorothioate; unmarked linkages are phosphodiester. Other units and linkages are bracketed, terminal groups are in braces. A string of capitals states the bases alone. e = 2'-O-(2-methoxyethyl) (MOE); [5mC] = 5-methylcytosine

Assays:
aP2 = aP2 mRNA expression in adipocytes (real-time PCR); assay type: cell-based, human; settings: differentiating adipocytes transfected with oligomeric compound; Table 75
HSL = HSL mRNA expression in adipocytes (real-time PCR); assay type: cell-based, human; settings: differentiating adipocytes transfected with oligomeric compound; Table 75
Glut4 = Glut4 mRNA expression in adipocytes (real-time PCR); assay type: cell-based, human; settings: differentiating adipocytes transfected with oligomeric compound; Table 75
PPARγ = PPARγ mRNA expression in adipocytes (real-time PCR); assay type: cell-based, human; settings: differentiating adipocytes transfected with oligomeric compound; Table 75
IGFBP-1 = IGFBP-1 mRNA expression in HepG2 cells; assay type: cell-based, human; settings: for IGFBP1 mRNA expression: Experiment 2, insulin treated: HepG2 cells transfected with oligomeric compound, 1 nM insulin for four hours, UTC + 1 nM insulin = 100; for IGFBP1 mRNA: HepG2 cells, Experiment 1, basal (no insulin), four hours, UTC = 100
follistatin = assay: Follistatin mRNA expression in HepG2 cells; assay type: cell-based, human; settings: for Follistatin mRNA expression: Experiment 2, insulin treated: HepG2 cells transfected with oligomeric compound, 1 nM insulin for four hours, UTC + 1 nM insulin = 100; for Follistatin mRNA: HepG2 cells, Experiment 1, basal (no insulin), four hours, UTC = 100
HuVECs = assay: Endothelial tube formation assay in HuVECs; settings: 75 nM oligomeric compound

Row | Substance | aP2 mRNA (aP2) | HSL mRNA (HSL) | GLUT4 mRNA (Glut4) | PPAR gamma mRNA (PPARγ) | IGFBP1 mRNA expression (IGFBP-1) | IGFBP1 mRNA (IGFBP-1) | Follistatin mRNA expression (follistatin) | Follistatin mRNA (follistatin) | % Activity Relative to UTC (tube formation) (HuVECs; Table 59) [%] | % Activity Relative to UTC (tube formation) (HuVECs; Table 58) [%] | % Activity Relative to UTC (tube formation) (HuVECs; Table 56) [%]
1 | 327964 (antisense e[5mC]*e[5mC]*eA*eA*eG*eT*eT*e[5mC]*eT*eG*eT*e[5mC]*eA*eT*eG*e[5mC]*eA*e[5mC]*eT*eG*eA) [compound 327964] | 96 percentage of untreated control (UTC) | 102 percentage of untreated control (UTC) | 114 percentage of untreated control (UTC) | 93 percentage of untreated control (UTC) | 121 | 100 | 114 | 97 | 86.7 |  | 
2 | 327924 (antisense eG*e[5mC]*eA*eA*eG*e[5mC]*e[5mC]*e[5mC]*eA*eG*eA*e[5mC]*e[5mC]*eG*e[5mC]*eA*eA*eA*eA*eA*eG) [compound 327924] |  |  |  |  |  |  |  |  |  | 88.9 | 
3 | 327952 (antisense e[5mC]*eT*eA*e[5mC]*eG*e[5mC]*eG*eT*eA*eT*eT*e[5mC]*eT*eT*eA*eA*eG*e[5mC]*eA*eA*eT*eA) [compound 327952] | 56 percentage of untreated control (UTC) | 64 percentage of untreated control (UTC) | 61 percentage of untreated control (UTC) | 84 percentage of untreated control (UTC) | 103 | 123 | 100 | 93 | 53.3 |  | 
4 | 327965 (antisense eA*eT*e[5mC]*eA*e[5mC]*eA*eT*eA*eG*eG*eA*eA*eT*eA*eA*eA*eA*eA*eG*e[5mC]*e[5mC]*eA*eT*eA) [compound 327965] | 67 percentage of untreated control (UTC) | 84 percentage of untreated control (UTC) | 88 percentage of untreated control (UTC) | 91 percentage of untreated control (UTC) | 105 | 106 | 79 | 95 | 100.0 |  | 
5 | 327936 (antisense eA*e[5mC]*eA*eG*e[5mC]*eT*eG*eG*eT*eT*eG*eA*eA*eG*eG*eG*eG*eA*e[5mC]*e[5mC]*eA*eA) [compound 327936] | 40 percentage of untreated control (UTC) | 40 percentage of untreated control (UTC) | 6 percentage of untreated control (UTC) | 47 percentage of untreated control (UTC) |  |  |  |  |  | 51.9 | 
6 | 327963 (antisense eA*eA*e[5mC]*e[5mC]*eT*eA*eT*e[5mC]*e[5mC]*eT*eG*eA*eA*eT*eT*eA*e[5mC]*eT*eT*eG*eA*eA) [compound 327963] | 75 percentage of untreated control (UTC) | 89 percentage of untreated control (UTC) | 91 percentage of untreated control (UTC) | 91 percentage of untreated control (UTC) | 111 | 108 | 95 | 101 | 93.3 |  | 
7 | 327873 (antisense e[5mC]*eT*eA*e[5mC]*e[5mC]*eA*eT*eA*eG*eG*eG*eT*eA*eA*eA*eA*e[5mC]*e[5mC]*eA*e[5mC]*eT) [compound 327873] | 113 percentage of untreated control (UTC) | 116 percentage of untreated control (UTC) | 106 percentage of untreated control (UTC) | 104 percentage of untreated control (UTC) |  | 108 |  | 97 |  |  | 100.0
8 | 327961 (antisense eG*eG*eG*eG*eT*eA*eT*eT*eT*eG*eA*e[5mC]*eA*eA*eA*e[5mC]*eT*eG*eA*e[5mC]*eA) [compound 327961] | 91 percentage of untreated control (UTC) | 88 percentage of untreated control (UTC) | 101 percentage of untreated control (UTC) | 95 percentage of untreated control (UTC) | 160 | 150 | 128 | 113 | 53.3 |  | 
9 | 327944 (antisense eA*eA*eA*eG*eT*eG*eT*e[5mC]*eA*eG*eA*eT*eA*e[5mC]*eG*eG*eT*eG*eT*eG*eG) [compound 327944] | 71 percentage of untreated control (UTC) | 55 percentage of untreated control (UTC) | 28 percentage of untreated control (UTC) | 64 percentage of untreated control (UTC) |  |  |  |  |  | 37.0 | 
10 | 327958 (antisense e[5mC]*e[5mC]*eG*eG*e[5mC]*eT*eG*e[5mC]*eA*eA*e[5mC]*eA*e[5mC]*eA*eA*eG*eA*e[5mC]*eA*e[5mC]*eG*eA) [compound 327958] | 10 percentage of untreated control (UTC) | 5 percentage of untreated control (UTC) | 5 percentage of untreated control (UTC) | 55 percentage of untreated control (UTC) | 149 | 119 | 112 | 91 | 40.0 |  | 
11 | 327940 (antisense eG*eA*eA*e[5mC]*eA*eG*eG*eT*eA*eG*eT*e[5mC]*eT*eG*eA*eA*e[5mC]*eA*e[5mC]*eT*eG*eG*eG) [compound 327940] | 62 percentage of untreated control (UTC) | 67 percentage of untreated control (UTC) | 43 percentage of untreated control (UTC) | 64 percentage of untreated control (UTC) |  |  |  |  |  | 59.3 | 
12 | 327957 (antisense e[5mC]*eA*e[5mC]*eA*eA*eG*eT*eT*e[5mC]*eG*eG*eA*eT*e[5mC]*eT*eA*e[5mC]*eG*eG*eG*eT*eT) [compound 327957] | 23 percentage of untreated control (UTC) | 15 percentage of untreated control (UTC) | 11 percentage of untreated control (UTC) | 68 percentage of untreated control (UTC) | 184 | 143 | 73 | 69 | 66.7 |  | 
13 | 327945 (antisense e[5mC]*eT*eG*eT*eT*e[5mC]*e[5mC]*eT*eG*e[5mC]*eT*eG*eA*eA*e[5mC]*eT*eG*eA*eG*e[5mC]*e[5mC]*eA) [compound 327945] | 43 percentage of untreated control (UTC) | 41 percentage of untreated control (UTC) | 26 percentage of untreated control (UTC) | 51 percentage of untreated control (UTC) |  |  |  |  |  | 59.3 | 
14 | 327949 (antisense e[5mC]*eA*e[5mC]*eA*eA*eA*eT*eT*e[5mC]*eG*eG*eA*eT*e[5mC]*eT*eA*e[5mC]*eA*eG*eG*eG*eT*eA) [compound 327949] | 52 percentage of untreated control (UTC) | 49 percentage of untreated control (UTC) | 20 percentage of untreated control (UTC) | 54 percentage of untreated control (UTC) | 172 | 112 | 111 | 112 | 66.7 |  | 
15 | 327950 (antisense eT*e[5mC]*eA*eG*eT*eT*eT*eT*eG*e[5mC]*eA*eT*eA*eG*eA*eT*eT*eT*eG*e[5mC]*eA*e[5mC]*eA) [compound 327950] | 95 percentage of untreated control (UTC) | 94 percentage of untreated control (UTC) | 104 percentage of untreated control (UTC) | 93 percentage of untreated control (UTC) | 124 | 109 | 89 | 83 | 73.3 |  | 
16 | 327959 (antisense e[5mC]*eA*eG*e[5mC]*e[5mC]*eG*e[5mC]*eT*eG*eT*e[5mC]*eA*e[5mC]*eA*e[5mC]*eG*e[5mC]*eA*e[5mC]*eA*eG) [compound 327959] | 24 percentage of untreated control (UTC) | 11 percentage of untreated control (UTC) | 152 percentage of untreated control (UTC) | 65 percentage of untreated control (UTC) | 141 | 124 | 92 | 98 | 40.0 |  | 
17 | 327935 (antisense e[5mC]*eT*eA*e[5mC]*e[5mC]*eT*eG*e[5mC]*eA*e[5mC]*eT*eA*eT*eA*eA*eG*e[5mC]*eA*e[5mC]*eT*eT*eT*eA) [compound 327935] | 60 percentage of untreated control (UTC) | 61 percentage of untreated control (UTC) | 47 percentage of untreated control (UTC) | 67 percentage of untreated control (UTC) |  |  |  |  |  | 74.1 | 
18 | 327971 (antisense eG*eG*eA*eA*eA*eT*e[5mC]*e[5mC]*e[5mC]*eT*eG*eG*e[5mC]*eA*eA*eT*eG*eT*eG*eA*eT) [compound 327971] | 49 percentage of untreated control (UTC) | 38 percentage of untreated control (UTC) | 60 percentage of untreated control (UTC) | 69 percentage of untreated control (UTC) |  |  |  |  |  |  | 
